Legend:
[1] = system: human umbilical vein endothelial cell (HUVEC) NO production; assay: HUVEC NO production (NOx in cell culture medium, chemiluminescence); type: cell-based; conditions: for HUVEC Cells NOx, 24 hr / HUVEC Cells NOx, 5 d / HUVEC Cells NOx, 2 hr: Table 2 summary
Procedure: Several compounds were investigated for their effect on nitric oxide (NO) production and vasorelaxation using serum-free human umbilical vein endothelial cell (HUVEC) culture system in vitro and rabbit aortic ring model ex vivo, respectively. NO production by endothelial cells and relaxation of pre-constricted aortic rings are two main markers for evaluating vascular effects of test compounds.
HUVECs obtained from a single donor were cultured in serum free, low protein (0.5 g/l), antibiotic-free cell culture medium supplemented with essential growth factors, nutrients and minerals. […] The cell culture medium was substituted with apo-transferrin, superoxide dismutase, and catalase to exclude secondary effects of test compounds involving their auto-oxidation mediated hydrogen peroxide formation.
NO production was evaluated by measuring the total amount of all major nitric oxide end products (NOx, including nitrate, nitrite, nitrosothiols) present in the cell culture medium. […] The amount of NO released from the culture medium was subsequently evaluated by measuring the chemiluminescence emitted during the stoichiometrical reaction between ozone and NO using a NO Analyzer (Sievers Instruments, Inc. Boulder, Colo.).
The data presented herein were obtained from three experiments and were expressed as the concentration of NO present (in μmol/l) (as NOx) in the cell culture medium+/−standard deviation (SD). The data were corrected for the NOx intrinsically present in the fully supplemented cell culture medium and normalized with respect to the volume of media from which the sample was drawn. Data were analyzed using Student's t-test with a 95% level of confidence. P values equal to or less than 0.05 were defined as statistically significant.
For the acute effect test, HUVECs were incubated with the test compounds for 2 hours at concentrations of 100 nM, 1 μM, and 10 μM at 37° C. and 5% CO2. […] (FIG. 1)
For the chronic effect test, HUVECs were incubated with 5 subsequent doses of test compounds, each for 24 hours. After each 24 hour treatment, culture medium was replaced.
For the acute effect test, HUVECs were incubated with a single dose of the test compounds for 24 hours at concentrations of 100 nM, 1 μM, and 10 μM at 37° C. and 5% CO2.

rabbit aortic rings = assay: Relaxation of norepinephrine pre-constricted rabbit aortic rings ex vivo; conditions: for Max Relaxation: Experiment 3, 10 μM and 100 μM
Procedure: Several compounds were investigated for their effect on nitric oxide (NO) production and vasorelaxation using serum-free human umbilical vein endothelial cell (HUVEC) culture system in vitro and rabbit aortic ring model ex vivo, respectively. NO production by endothelial cells and relaxation of pre-constricted aortic rings are two main markers for evaluating vascular effects of test compounds. Effect of different procyanidins on endothelium-dependent relaxation was tested in an ex vivo experiment performed as previously described by Karim et al., J. Nutrl Suppl., 130 (8S): […]-[…] (2000), the relevant portions of which are hereby incorporated herein by reference. The advantage of using this method is that it assesses functional vascular end points. […] In summary, rabbit aortic rings were obtained from male New Zealand White rabbits. Following isolation, the rings were mounted in oxygenated Kreb's buffer, and pre-constricted with norepinephrine (NE) (10^-6 M). […] A positive control acetylcholine (10^-9 to 10^-4 M) and a negative control L-NAME were included in the experiment. Use of L-NAME, which is a NO synthase (NOS) inhibitor, allows for differentiating between endothelium dependent and endothelium independent relaxation events. […] The relaxation response was measured as a function of the decrease in the tension (g) exerted by the aortic rings over time […]. Data obtained were expressed as a percent relaxation of the norepinephrine (NE) constricted rings. The same statistical approach as described above was used. Dose response curves were obtained by plotting the average percent relaxation (+/-SE) against the concentrations used.

HUVEC = assay: HUVEC-mediated MTT reduction (toxic effects); conditions: for cell-mediated MTT reduction: 10 μM (20 μM for the Epicatechin gallates); for cell-mediated reduction of MTT: 1 μM
Procedure: Cell counts and total protein were used to assess intra-assay variation. Potential toxic effects of tested compounds were also monitored (MTT reduction was measured).

[2] = system: human umbilical vein endothelial cell (HUVEC) NO production; assay: HUVEC NO production (NOx in cell culture medium, chemiluminescence); type: cell-based; conditions: Experiment 1, 24 h after single dose, 1 mM (so in the source)
[3] = Experiment 2, single dose, 24 hours, 1 μM
[4] = Experiment 2, chronic, 5 x 24 hours
[5] = Experiment 2, single dose, 24 hours
[6] = Experiment 2, single dose, 24 hours, 10 μM
[7] = Experiment 1, 24 h after single dose, 10 μM
[8] = Experiment 1, acute, 2 hours incubation, 10 μM
[9] = Experiment 1, chronic, 5 subsequent 24 hour doses

SMILES	NO production [1, 3]	HUVEC Cells NOx, 5 d [1]	Max Relaxation (rabbit aortic rings) [%]	cell-mediated MTT reduction (HUVEC; [4])	cell-mediated reduction of MTT (HUVEC; [5])	NO production [1, 7]	modulation of NO production [1, 8]	modulation of NO production [1, 6]	HUVEC Cells NOx, 2 hr [1]	HUVEC Cells NOx, 24 hr [1]	relaxation response, percent relaxation of NE constricted rings (rabbit aortic rings; Experiment 1, 10^−4 M)	relaxation response, percent relaxation of NE constricted rings (rabbit aortic rings; Experiment 1, 10^−5 M)	NO production [2]	other results
O=C(O[C@H]1[C@@H](c2c(O)cc(O)c3c2O[C@H](c2ccc(O)c(O)c2)[C@H](OC(=O)c2cc(O)c(O)c(O)c2)C3)c2c(O)cc(O)cc2O[C@@H]1c1ccc(O)c(O)c1)c1cc(O)c(O)c(O)c1 [C-(4β→8)-EC digallate, (+)-Catechin-(4β,8)-(−)-Epicatechin Digallate]	statistically significant increases in NO production	No significant NOx increase;	72	significant decline of cell-mediated MTT reduction	no effect on cell-mediated reduction of MTT	–	–	–	–	–	–	–	–	HUVEC Cells NOx, 24 hr ([1]; 1 µM): 1 uM, sign. Incr. NOx; 10 uM,; HUVEC Cells NOx, 24 hr ([1]; 10 µM): no sign. effect on NOx, Cell; relaxation response, percent relaxation of NE constricted rings (rabbit aortic rings; Experiment 2, 10^−4 M): 72.4+/−17.4%; relaxation response (rabbit aortic rings; Experiment 2, 10^−5 M): 33.1%; loss of HUVEC MTT reduction as compared to controls (HUVEC; [6]): 47%; HUVEC Cells cell toxicity, 24 hr (HUVEC; Table 2 summary, 24 hr, 10 uM): toxicity
Oc1cc(O)c2c(c1)O[C@H](c1ccc(O)c(O)c1)[C@H](O)[C@H]2c1c(O)cc(O)c2c1O[C@H](c1ccc(O)c(O)c1)[C@@H](O)C2 [EC-(4β→8)-C, (−)-Epicatechin-(4β,8)-(+)-Catechin]	statistically significant increases in NO production	10 uM, significant NOx	–	–	no effect on cell-mediated reduction of MTT	increased NO production	statically significant ability to modulate NO production	statistically significant ability to modulate NO production	10 uM, sign. NOx	1 uM and 10 uM, sign. Incr. in	58.36+/−11.35%	42.7+/−11.81%	increased NO production	HUVEC NO production ([1]; Experiment 2, chronic, 5 subsequent 24 hour doses): increase in NO production which was significantly lower as compared to single dose treatment; NO modulating effect after re-purification ([1]; re-purified compound (first lot contaminated with A1 dimer)): no longer exhibited the NO modulating effect
O=C(O[C@@H]1[C@@H](c2c(O)cc(O)c3c2O[C@H](c2ccc(O)c(O)c2)[C@H](OC(=O)c2cc(O)c(O)c(O)c2)C3)c2c(O)cc(O)cc2O[C@@H]1c1ccc(O)c(O)c1)c1cc(O)c(O)c(O)c1 [EC-(4β→8)-EC digallate, (−)-Epicatechin-(4β,8)-(−)-Epicatechin Digallate]	statistically significant increases in NO production	No significant NOx increase;	74	significant decline of cell-mediated MTT reduction	no effect on cell-mediated reduction of MTT	increased NO production	statically significant ability to modulate NO production	statistically significant ability to modulate NO production	10 uM, sign. NOx	1 and 10 uM, sign. NOx inc.	73.55+/−7.08%	44.6+/−16.6%	increased NO production	NO production [1, 9]: attenuation of NO production; decline in MTT reduction (HUVEC; [9]): 55%; MTT reduction (HUVEC; Experiment 2, chronic, 5 x 24 hours, 1 μM or 2 μM for EGC): decline in MTT reduction

Reference: patent US20050277600A1, “Compositions and methods of use of dimer digallates” (Mars, Incroporated, priority 2004, published 2005)
